ChEMBL document CHEMBL4184320, “Optimization of Selective Mitogen-Activated Protein Kinase Interacting Kinases 1 and 2 Inhibitors for the Treatment of Blast Crisis Leukemia” (J Med Chem, 2018)
Values after ≈ are worked out from the molar mass of the structure shown. One block for each compound: values may come before it. Active and inactive are the calls of the source. The calls are words filed in the database; no cut-off is given here.

Columns and labels:
[1] = Apparent permeability of the compound across apical side to basolateral side in human Caco2 cells by LC-MS/MS analysis; type: ADME, cell-based; conditions: Caco-2
[2] = Protein binding in human plasma at […] after 5 hrs by LC-MS/MS analysis; type: ADME, cell-free; conditions: read-out: PPB (converted)
in vitro [3] = conditions: human, liver microsomes
Description: Half life in human liver microsomes at 1 uM in presence of NADPH by LC-MS/MS analysis

[4] = Octanol-phosphate buffer partition coefficient, logD of compound at pH 7.4 by HPLC-UV analysis; type: physicochemical
[5] = target: MAP kinase-interacting serine/threonine-protein kinase 2 (Homo sapiens, UniProt Q9HBH9)
MAP kinase-interacting serine/threonine-protein kinase 2, sequence (Q9HBH9 whole entry): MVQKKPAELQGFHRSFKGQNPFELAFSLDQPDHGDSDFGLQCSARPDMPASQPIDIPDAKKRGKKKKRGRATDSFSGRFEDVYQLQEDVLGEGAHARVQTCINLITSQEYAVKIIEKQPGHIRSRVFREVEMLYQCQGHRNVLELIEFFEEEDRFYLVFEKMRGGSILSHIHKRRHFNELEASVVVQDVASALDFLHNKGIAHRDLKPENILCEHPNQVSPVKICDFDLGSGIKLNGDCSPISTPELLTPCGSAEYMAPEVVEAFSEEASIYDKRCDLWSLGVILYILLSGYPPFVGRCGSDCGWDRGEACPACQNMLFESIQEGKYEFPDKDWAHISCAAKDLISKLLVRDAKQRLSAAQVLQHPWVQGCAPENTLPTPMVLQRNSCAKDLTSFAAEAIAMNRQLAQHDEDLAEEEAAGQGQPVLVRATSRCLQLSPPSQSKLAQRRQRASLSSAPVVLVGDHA
Description: Inhibition of GST-tagged MNK2 (72 to 385 residues) (unknown origin) expressed in Escherichia coli BL21(DE3) using JH3 peptide as substrate preincubated for 10 mins followed by substrate and ATP addition measured after 60 mins

Cytochrome P450 2D6 = Cytochrome P450 2D6 (Homo sapiens, UniProt P10635); test: Inhibition of CYP2D6 in human liver microsomes using dextromethorphan as substrate preincubated for 5 mins followed by NADPH addition by LC-MS/MS analysis; type: ADME
Cytochrome P450 2D6, sequence (P10635 whole entry): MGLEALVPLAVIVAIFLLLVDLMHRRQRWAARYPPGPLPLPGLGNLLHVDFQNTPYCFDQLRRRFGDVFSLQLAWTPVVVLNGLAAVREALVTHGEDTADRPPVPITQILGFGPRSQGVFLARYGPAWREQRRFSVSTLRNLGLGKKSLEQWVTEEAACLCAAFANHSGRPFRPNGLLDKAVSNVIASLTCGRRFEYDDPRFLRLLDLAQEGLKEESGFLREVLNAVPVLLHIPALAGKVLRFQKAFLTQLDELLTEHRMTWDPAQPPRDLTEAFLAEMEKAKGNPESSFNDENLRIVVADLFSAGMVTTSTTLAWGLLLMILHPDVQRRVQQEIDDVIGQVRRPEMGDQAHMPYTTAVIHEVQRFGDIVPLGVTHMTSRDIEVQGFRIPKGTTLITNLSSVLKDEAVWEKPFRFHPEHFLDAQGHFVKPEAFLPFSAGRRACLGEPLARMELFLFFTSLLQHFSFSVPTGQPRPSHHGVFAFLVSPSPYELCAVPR

[6] = target: MAP kinase-interacting serine/threonine-protein kinase 1 (Homo sapiens, UniProt Q9BUB5)
MAP kinase-interacting serine/threonine-protein kinase 1, sequence (Q9BUB5 whole entry): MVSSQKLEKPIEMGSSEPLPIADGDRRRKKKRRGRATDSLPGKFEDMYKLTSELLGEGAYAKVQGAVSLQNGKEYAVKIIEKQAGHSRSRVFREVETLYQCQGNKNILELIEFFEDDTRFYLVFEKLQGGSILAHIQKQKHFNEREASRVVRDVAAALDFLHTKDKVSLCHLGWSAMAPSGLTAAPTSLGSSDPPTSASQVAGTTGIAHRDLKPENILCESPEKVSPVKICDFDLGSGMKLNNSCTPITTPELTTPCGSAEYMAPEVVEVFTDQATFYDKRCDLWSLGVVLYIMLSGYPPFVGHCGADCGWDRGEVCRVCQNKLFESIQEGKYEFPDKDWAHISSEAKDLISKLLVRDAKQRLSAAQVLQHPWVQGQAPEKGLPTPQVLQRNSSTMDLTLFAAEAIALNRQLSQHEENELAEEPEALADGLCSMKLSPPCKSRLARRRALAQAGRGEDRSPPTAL
Description: Inhibition of GST-tagged MNK1 (37 to 341 residues) (unknown origin) expressed in Escherichia coli BL21(DE3) using JH3 peptide as substrate preincubated for 10 mins followed by substrate and ATP addition measured after 60 mins

[7] = Permeability of the compound by PAMPA; type: ADME; conditions: read-out: permeability
[8] = target: MAP kinase-interacting serine/threonine-protein kinase 1/2 (Homo sapiens, UniProt Q9HBH9+Q9BUB5); test: Inhibition of MNK1/2 in human HeLa cells assessed as decrease in eIF4E phosphorylation at Ser209 after 2 hrs by AlphaScreen assay; type: cell-based
Cytochrome P450 3A4 = Cytochrome P450 3A4 (Homo sapiens, UniProt P08684)
Cytochrome P450 3A4, sequence (P08684 whole entry): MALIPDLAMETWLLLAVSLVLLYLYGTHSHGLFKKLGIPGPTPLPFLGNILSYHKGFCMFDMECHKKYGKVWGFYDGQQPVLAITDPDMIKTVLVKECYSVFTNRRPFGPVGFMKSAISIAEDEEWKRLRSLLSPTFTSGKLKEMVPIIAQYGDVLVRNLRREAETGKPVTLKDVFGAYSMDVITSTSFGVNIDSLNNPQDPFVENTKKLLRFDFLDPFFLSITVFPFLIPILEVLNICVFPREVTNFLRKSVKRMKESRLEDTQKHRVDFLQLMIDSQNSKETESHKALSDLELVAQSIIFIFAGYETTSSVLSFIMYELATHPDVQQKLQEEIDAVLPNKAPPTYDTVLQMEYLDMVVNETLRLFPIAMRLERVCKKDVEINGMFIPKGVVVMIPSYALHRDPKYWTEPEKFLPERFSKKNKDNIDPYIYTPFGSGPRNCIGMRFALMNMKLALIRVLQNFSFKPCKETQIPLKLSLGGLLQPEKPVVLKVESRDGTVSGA
Description: Inhibition of CYP3A4 in human liver microsomes using midazolam as substrate preincubated for 5 mins followed by NADPH addition measured after 5 mins by LC-MS/MS analysis

[9] = Efflux ratio of apparent permeability in human Caco2 cells by LC-MS/MS analysis; type: ADME, cell-based; conditions: Caco-2
[10] = Protein binding in mouse plasma at […] after 5 hrs by LC-MS/MS analysis; type: ADME, cell-free; conditions: read-out: PPB (converted)
[11] = Thermodynamic solubility of the compound at pH 4 to 7.4 pION buffer after 18 hrs by UV spectrophotometric analysis; type: physicochemical; conditions: read-out: Therm_solubility
in vitro [12] = conditions: mouse, liver microsomes
Description: Half life in mouse liver microsomes at 1 uM in presence of NADPH by LC-MS/MS analysis

in vitro [13] = conditions: rat, liver microsomes
Description: Half life in rat liver microsomes at 1 uM in presence of NADPH by LC-MS/MS analysis

[14] = AUClast in CD-1 mouse at 1 mg/kg, iv administered as single dose by LC-MS/MS analysis; type: ADME, organism-based; parameters: dose 1 mg/kg, time 0 - last, route intravenous; conditions: in vivo
[15] = Oral bioavailability in CD-1 mouse at 5 mg/kg administered via gavage as single dose by LC-MS/MS analysis; type: ADME, organism-based; conditions: in vivo
[16] = Initial concentration in CD-1 mouse at 1 mg/kg, iv administered as single dose by LC-MS/MS analysis; type: ADME, organism-based; conditions: in vivo
P3HR-1 = test: Antiproliferative activity against human P3HR1 cells after 48 hrs by CellTiter-Glo luminescence assay; type: functional, cell-based
[17] = Half life in dog liver microsomes at 1 uM in presence of NADPH by LC-MS/MS analysis; type: ADME, Canis lupus familiaris, microsome
[18] = Cmax in CD-1 mouse at 5 mg/kg, po administered via gavage as single dose by LC-MS/MS analysis; type: ADME, organism-based; parameters: dose 5 mg/kg, route oral; conditions: in vivo
[19] = target: Receptor-type tyrosine-protein kinase FLT3 (Homo sapiens) (UniProt P36888); test: Inhibition of wild-type human partial length FLT3 (V592 to Y969 residues) expressed in bacterial expression system by Kinomescan method
Receptor-type tyrosine-protein kinase FLT3 (Homo sapiens), sequence (P36888 whole entry, the tested form may be a part): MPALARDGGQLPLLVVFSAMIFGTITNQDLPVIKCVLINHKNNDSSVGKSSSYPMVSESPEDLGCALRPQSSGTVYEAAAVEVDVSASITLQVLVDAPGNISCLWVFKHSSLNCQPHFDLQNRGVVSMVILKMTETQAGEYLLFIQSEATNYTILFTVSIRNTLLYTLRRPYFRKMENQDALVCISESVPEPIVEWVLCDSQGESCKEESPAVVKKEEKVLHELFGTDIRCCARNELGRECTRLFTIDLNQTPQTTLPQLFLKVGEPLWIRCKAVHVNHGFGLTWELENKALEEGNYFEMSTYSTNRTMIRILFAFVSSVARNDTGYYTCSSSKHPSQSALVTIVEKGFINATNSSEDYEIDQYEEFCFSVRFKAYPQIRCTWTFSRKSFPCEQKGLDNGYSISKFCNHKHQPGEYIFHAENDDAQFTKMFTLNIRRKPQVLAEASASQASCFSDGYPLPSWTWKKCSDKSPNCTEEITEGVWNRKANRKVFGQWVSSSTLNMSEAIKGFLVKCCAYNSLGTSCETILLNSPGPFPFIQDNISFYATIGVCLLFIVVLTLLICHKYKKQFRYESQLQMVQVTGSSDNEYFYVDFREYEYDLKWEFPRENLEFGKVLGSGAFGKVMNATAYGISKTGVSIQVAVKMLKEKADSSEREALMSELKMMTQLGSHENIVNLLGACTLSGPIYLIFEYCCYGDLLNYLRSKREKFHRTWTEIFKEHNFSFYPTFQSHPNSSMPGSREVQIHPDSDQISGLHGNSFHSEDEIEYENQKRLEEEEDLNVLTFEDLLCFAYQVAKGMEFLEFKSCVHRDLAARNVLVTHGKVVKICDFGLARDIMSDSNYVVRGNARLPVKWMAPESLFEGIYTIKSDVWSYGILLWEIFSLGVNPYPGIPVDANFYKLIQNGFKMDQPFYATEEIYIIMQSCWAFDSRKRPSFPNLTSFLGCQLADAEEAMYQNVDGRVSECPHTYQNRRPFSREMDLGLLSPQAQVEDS

[20] = Clearance in CD-1 mouse at 1 mg/kg, iv administered as single dose by LC-MS/MS analysis; type: ADME, organism-based; conditions: in vivo
Homo sapiens [21] = species: Homo sapiens; test: Antiproliferative activity against human AHH1 cells after 48 hrs by CellTiter-Glo luminescence assay; type: functional, cell-based
[22] = target: Mast/stem cell growth factor receptor Kit (Homo sapiens) (UniProt P10721); test: Inhibition of wild-type human partial length KIT (I571 to D952 residues) expressed in bacterial expression system at 1 uM by Kinomescan method relative to control
Mast/stem cell growth factor receptor Kit (Homo sapiens), sequence (P10721 whole entry, the tested form may be a part): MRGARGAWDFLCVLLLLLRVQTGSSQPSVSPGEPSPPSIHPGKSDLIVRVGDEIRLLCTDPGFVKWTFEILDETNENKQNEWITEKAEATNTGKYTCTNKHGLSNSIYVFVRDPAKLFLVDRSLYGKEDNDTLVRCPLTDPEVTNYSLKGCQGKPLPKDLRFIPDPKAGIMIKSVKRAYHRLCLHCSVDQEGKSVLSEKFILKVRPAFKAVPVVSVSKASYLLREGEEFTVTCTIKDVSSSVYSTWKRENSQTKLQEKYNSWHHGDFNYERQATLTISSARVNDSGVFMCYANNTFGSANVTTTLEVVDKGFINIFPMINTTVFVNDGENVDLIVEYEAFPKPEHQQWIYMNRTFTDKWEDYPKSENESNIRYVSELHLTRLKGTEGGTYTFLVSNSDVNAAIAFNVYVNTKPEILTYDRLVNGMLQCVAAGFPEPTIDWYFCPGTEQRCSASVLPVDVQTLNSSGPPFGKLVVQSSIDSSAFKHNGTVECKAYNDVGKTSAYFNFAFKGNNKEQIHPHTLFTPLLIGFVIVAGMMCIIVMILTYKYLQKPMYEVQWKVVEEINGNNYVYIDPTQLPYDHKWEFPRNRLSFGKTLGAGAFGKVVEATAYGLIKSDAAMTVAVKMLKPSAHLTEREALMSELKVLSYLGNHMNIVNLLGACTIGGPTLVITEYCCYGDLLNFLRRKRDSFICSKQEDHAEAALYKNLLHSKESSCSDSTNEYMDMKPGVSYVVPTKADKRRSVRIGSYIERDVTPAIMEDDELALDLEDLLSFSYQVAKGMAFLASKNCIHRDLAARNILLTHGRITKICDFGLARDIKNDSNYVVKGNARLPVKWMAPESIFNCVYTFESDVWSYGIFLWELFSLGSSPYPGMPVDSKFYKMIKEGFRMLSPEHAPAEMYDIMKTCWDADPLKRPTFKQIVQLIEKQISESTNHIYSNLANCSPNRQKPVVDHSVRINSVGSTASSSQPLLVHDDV

[23] = Half life in CD-1 mouse at 1 mg/kg, iv administered as single dose by LC-MS/MS analysis; type: ADME, organism-based; conditions: in vivo
DOHH-2 = test: Antiproliferative activity against human DOHH2 cells after 48 hrs by CellTiter-Glo luminescence assay; type: functional, cell-based
[24] = target: Phosphorylase b kinase gamma catalytic chain, liver/testis isoform (Homo sapiens) (UniProt P15735); test: Inhibition of wild-type human partial length PHKG2 (M1 to W300 residues) expressed in bacterial expression system at 1 uM by Kinomescan method relative to control
Homo sapiens [25] = species: Homo sapiens; test: Antiproliferative activity against human GK5 cells after 48 hrs by CellTiter-Glo luminescence assay; type: functional, cell-based
[26] = target: Serine/threonine-protein kinase 17A (Homo sapiens) (UniProt Q9UEE5); test: Inhibition of wild-type human partial length DRAK1 (R32 to E363 residues) expressed in bacterial expression system at 1 uM by Kinomescan method relative to control
[27] = target: Platelet-derived growth factor receptor beta (Homo sapiens) (UniProt P09619); test: Inhibition of wild-type human partial length PDGFRB (V582 to Y1009 residues) expressed in bacterial expression system at 1 uM by Kinomescan method relative to control
[28] = AUClast in CD-1 mouse at 5 mg/kg, po administered via gavage as single dose by LC-MS/MS analysis; type: ADME, organism-based; parameters: dose 5 mg/kg, time 0 - last, route oral; conditions: in vivo
[29] = target: Platelet-derived growth factor receptor alpha (Homo sapiens) (UniProt P16234); test: Inhibition of wild-type human partial length PDGFRA (V575 to D1002 residues) expressed in mammalian expression system at 1 uM by Kinomescan method relative to control
Platelet-derived growth factor receptor alpha (Homo sapiens), sequence (P16234 whole entry, the tested form may be a part): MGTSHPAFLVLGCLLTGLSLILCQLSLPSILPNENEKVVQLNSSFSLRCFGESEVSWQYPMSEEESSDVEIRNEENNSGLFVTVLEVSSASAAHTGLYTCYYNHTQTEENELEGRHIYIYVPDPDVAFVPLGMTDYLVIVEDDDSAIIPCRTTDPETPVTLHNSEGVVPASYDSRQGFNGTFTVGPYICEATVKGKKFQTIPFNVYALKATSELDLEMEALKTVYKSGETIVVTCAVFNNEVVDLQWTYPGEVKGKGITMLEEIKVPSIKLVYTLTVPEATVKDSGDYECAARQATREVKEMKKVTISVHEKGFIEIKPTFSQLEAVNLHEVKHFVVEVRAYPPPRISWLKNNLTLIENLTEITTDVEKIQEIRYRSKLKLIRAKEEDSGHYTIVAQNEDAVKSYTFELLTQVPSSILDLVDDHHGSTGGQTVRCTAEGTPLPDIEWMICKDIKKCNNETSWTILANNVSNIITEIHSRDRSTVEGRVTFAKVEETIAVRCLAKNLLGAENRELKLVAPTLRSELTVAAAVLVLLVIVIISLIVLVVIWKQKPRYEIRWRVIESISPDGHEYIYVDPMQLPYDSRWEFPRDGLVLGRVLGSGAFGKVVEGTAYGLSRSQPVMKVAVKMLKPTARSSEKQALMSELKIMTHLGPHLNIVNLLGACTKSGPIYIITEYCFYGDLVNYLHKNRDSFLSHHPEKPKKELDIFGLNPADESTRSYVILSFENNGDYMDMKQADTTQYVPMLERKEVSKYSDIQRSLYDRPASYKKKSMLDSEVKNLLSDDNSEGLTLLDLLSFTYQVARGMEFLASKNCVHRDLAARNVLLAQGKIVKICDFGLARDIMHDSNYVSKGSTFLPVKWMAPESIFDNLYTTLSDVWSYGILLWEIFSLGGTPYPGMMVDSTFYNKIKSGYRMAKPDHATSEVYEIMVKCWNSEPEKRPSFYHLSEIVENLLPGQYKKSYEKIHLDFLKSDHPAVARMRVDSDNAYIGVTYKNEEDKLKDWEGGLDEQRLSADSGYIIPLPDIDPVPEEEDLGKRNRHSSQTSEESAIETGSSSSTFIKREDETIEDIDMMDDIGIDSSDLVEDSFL

[30] = Half life in CD-1 mouse at 5 mg/kg, po administered via gavage as single dose by LC-MS/MS analysis; type: ADME, organism-based; conditions: in vivo
[31] = target: Platelet-derived growth factor receptor alpha (Homo sapiens) (UniProt P16234); test: Inhibition of wild-type human partial length PDGFRA (V575 to D1002 residues) expressed in mammalian expression system by Kinomescan method
[32] = target: SRSF protein kinase 3 (Homo sapiens) (UniProt Q9UPE1); test: Inhibition of human SRPK3 (P41 to P567 residues) expressed in bacterial expression system at 1 uM by KINOMEscan assay relative to control
[33] = target: Receptor-type tyrosine-protein kinase FLT3 (Homo sapiens) (UniProt P36888); test: Inhibition of wild-type human partial length FLT3 (V592 to Y969 residues) expressed in bacterial expression system at 1 uM by Kinomescan method relative to control
K562 = test: Antitumor activity against human K562 cells overexpressing GFP-fussed full length mouse eIF4E xenografted in SCID mouse assessed as tumor growth inhibition at 2.5 mg/kg, po qd administered via gavage for 5 days on 2 days off per cycle for 2 cycles relative to control; type: functional; conditions: read-out: TGI

Papp A→B [1]: 14.6 ×10⁻⁶ cm/s
fraction unbound at 5 h [2]: 0.001
half-life at 1 µM (in vitro [3]): 0.283 h
logD [4]: 2.82
IC50 [5]: 25 nM
IC50 (Cytochrome P450 2D6): > 20000 nM
IC50 [6]: 20 nM
Papp [7]: 25 ×10⁻⁶ cm/s
IC50 [8]: 326 nM
IC50 (Cytochrome P450 3A4): > 20000 nM
efflux ratio [9]: 4.84
fraction unbound at 5 h [10]: 0.041
solubility thermodynamic at 18 h [11]: 86 µg/mL (≈ 204 µM)
half-life at 1 µM (in vitro [12]): 0.383 h
SMILES: CN1CCN(C(=O)c2ccc(-c3ccc4ncc(-c5ccc(C#N)cc5)n4n3)cc2)CC1

Papp A→B [1]: 38.5 ×10⁻⁶ cm/s
half-life at 1 µM (in vitro [13]): > 1 h
AUC(0-t) [14]: 6120 ng·h/mL
fraction unbound at 5 h [2]: 0.001
bioavailability [15]: 79%
C0 [16]: 2940 ng/mL
half-life at 1 µM (in vitro [3]): 0.883 h
logD [4]: 2.1
half-life at 1 µM [17]: > 1 h
Cmax [18]: 4400 ng/mL
IC50 [5]: 41 nM
INH [19]: 0.88 µM
clearance [20]: 2.67 mL/min/kg
inhibition [22]: > 65%
half-life [23]: 2.32 h
IC50 (Cytochrome P450 2D6): > 20000 nM
inhibition [24]: > 65%
IC50 [6]: 23 nM
Papp [7]: 30 ×10⁻⁶ cm/s
inhibition [26]: > 65%
inhibition [27]: > 65%
AUC(0-t) [28]: 24100 ng·h/mL
inhibition [29]: > 65%
half-life [30]: 2.14 h
IC50 [8]: 421 nM
IC50 (Cytochrome P450 3A4): > 20000 nM
fraction unbound at 5 h [10]: 0.055
INH [31]: 0.25 µM
inhibition [32]: > 65%
solubility thermodynamic at 18 h [11]: 1.8 µg/mL (≈ 4.4 µM)
inhibition [33]: > 65%
half-life at 1 µM (in vitro [12]): > 1 h
SMILES: N#Cc1ccc(-c2cnc3ccc(-c4ccc(C(=O)N5CCOCC5)cc4)nn23)cc1
Activity (P3HR-1): Active
Activity (Homo sapiens [21]): Active
Activity (DOHH-2): Active
Activity (Homo sapiens [25]): Active

SMILES: Cc1nc(Nc2ncc(C(=O)Nc3c(C)cccc3Cl)s2)cc(N2CCN(CCO)CC2)n1 [DASATINIB]
inhibition in vivo at 2.5 mg/kg (K562): 88%

Papp A→B [1]: 17.9 ×10⁻⁶ cm/s
half-life at 1 µM (in vitro [3]): > 1 h
logD [4]: 1.77
IC50 [5]: 454 nM
IC50 (Cytochrome P450 2D6): > 20000 nM
IC50 [6]: 570 nM
Papp [7]: 43.1 ×10⁻⁶ cm/s
IC50 [8]: 748 nM
IC50 (Cytochrome P450 3A4): > 20000 nM
efflux ratio [9]: 1.73
solubility thermodynamic at 18 h [11]: 11.1 µg/mL (≈ 27.1 µM)
half-life at 1 µM (in vitro [12]): > 1 h
SMILES: N#Cc1ccc(-c2cnc3cnc(-c4ccc(C(=O)N5CCOCC5)cc4)cn23)cc1
